Data: US9474790B2, “Stable, protracted GLP-1/glucagon receptor co-agonists for medical use” (Novo Nordisk A/S, priority 2013, dated 2016)
Numbered stars: 1 amine (or outer) side, 2 acyl side, 3 side chain; on linkers, the order of the positions; unused ones are H or OH. Square brackets hold non-standard residues; d marks the D form. Side chains are listed from the residue outwards. Peptide text beside a SMILES is read from it. * marks the point of attachment. C18 diacid = O=C(O)CCCCCCCCCCCCCCCCC(=O)*; γGlu = O=C(O)[C@H](CCC(=O)[*:2])N[*:1]; Ac4c = NC1(C(=O)O)CCC1; AEEA = NCCOCCOCC(=O)O; Aib = CC(C)(N)C(=O)O

target: T1, human GLP-1 receptor (Homo sapiens, UniProt P43220); assay: GLP-1 receptor binding, 125I-GLP-1 displacement SPA on isolated membranes; conditions: displacement of 125I-GLP-1 from membranes; read-out: IC50 GLP-1R
T1 construct: expressed in transfected cells; host or cells: BHK cells (parent BHKTS13), clone FCW467-12A/KZ10-1, with CRE luciferase
Method in brief: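 Test derivatives, serially diluted, competed with 125I-GLP-1(7-36)NH2 for the human GLP-1 receptor on BHK membranes, read by WGA-bead scintillation proximity after 2 h at 30°C, pH 7.4 HEPES/EGTA/MgCl2 buffer. Final serum albumin was either ≤0.001% or 2.0%; IC50 from non-linear fit.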

T1 sequence (P43220 24-463): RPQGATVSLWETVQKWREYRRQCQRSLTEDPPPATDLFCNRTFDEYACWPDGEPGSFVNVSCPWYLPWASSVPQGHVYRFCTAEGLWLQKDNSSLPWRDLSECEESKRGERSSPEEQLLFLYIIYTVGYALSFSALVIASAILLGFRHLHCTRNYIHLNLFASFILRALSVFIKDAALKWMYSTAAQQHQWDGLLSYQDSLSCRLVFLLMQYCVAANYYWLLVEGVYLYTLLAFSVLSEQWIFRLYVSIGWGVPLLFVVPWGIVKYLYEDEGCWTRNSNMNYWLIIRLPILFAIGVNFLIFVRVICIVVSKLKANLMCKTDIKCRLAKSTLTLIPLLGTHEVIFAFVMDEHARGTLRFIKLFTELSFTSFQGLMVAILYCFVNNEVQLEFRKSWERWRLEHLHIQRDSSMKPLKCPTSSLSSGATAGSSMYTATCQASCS

Question: `CC(C)C[C@H](NC(=O)[C@H](Cc1ccc(O)cc1)NC(=O)[C@H](CCCCN)NC(=O)[C@H](CO)NC(=O)[C@H](CC(C)C)NC(=O)[C@H](CC(=O)O)NC(=O)[C@H](CO)NC(=O)[C@@H](NC(=O)[C@H](Cc1ccccc1)NC(=O)[C@@H](NC(=O)CNC(=O)[C@H](CCC(N)=O)NC(=O)C(C)(C)NC(=O)[C@@H](N)Cc1c[nH]cn1)[C@@H](C)O)[C@@H](C)O)C(=O)N[C@@H](CCC(=O)O)C(=O)N[C@@H](CO)C(=O)N[C@@H](CCCNC(=N)N)C(=O)N[C@@H](CCCNC(=N)N)C(=O)N[C@@H](C)C(=O)N[C@@H](CCCNC(=N)N)C(=O)N[C@@H](CCC(=O)O)C(=O)N[C@@H](Cc1ccccc1)C(=O)N[C@H](C(=O)N[C@@H](CCC(N)=O)C(=O)N[C@@H](Cc1c[nH]c2ccccc12)C(=O)N[C@@H](CC(C)C)C(=O)N[C@@H](CC(C)C)C(=O)N[C@@H](CCCCNC(=O)CC[C@H](NC(=O)CC[C@H](NC(=O)CC[C@H](NC(=O)CCCCCCCCCCCCCCCCC(=O)O)C(=O)O)C(=O)O)C(=O)O)C(=O)N[C@H](C(N)=O)[C@@H](C)O)C(C)C` [Example 41, N^ε28-[(4S)-4-carboxy-4-[[(4S)-4-carboxy-4-[[(4S)-4-carboxy-4-(17-carboxyheptadecanoylamino)butanoyl]amino]butanoyl]amino]butanoyl]-[Aib2,Leu10,Glu15, Arg20,Glu21,Leu27,Lys28]-Glucagon amide] (H-H[Aib]QGTFTSDLSKYLESRRAREFVQWLLK([γGlu-γGlu-γGlu-C18 diacid])T-NH2; N-terminus assumed) was tested. Which IC50 did it give?
Answer: 0.3 nM

Question: How did the IC50 turn out when `CC(C)C[C@H](NC(=O)[C@H](Cc1ccc(O)cc1)NC(=O)[C@H](CCCCN)NC(=O)[C@H](CO)NC(=O)[C@H](CC(C)C)NC(=O)[C@H](CC(=O)O)NC(=O)[C@H](CO)NC(=O)[C@@H](NC(=O)[C@H](Cc1ccccc1)NC(=O)[C@@H](NC(=O)CNC(=O)[C@H](CCC(N)=O)NC(=O)C(C)(C)NC(=O)[C@@H](N)Cc1c[nH]cn1)[C@@H](C)O)[C@@H](C)O)C(=O)N[C@@H](CCC(=O)O)C(=O)N[C@@H](CO)C(=O)N[C@@H](CCCNC(=N)N)C(=O)N[C@@H](CCCNC(=N)N)C(=O)N[C@@H](C)C(=O)N[C@@H](CCCNC(=N)N)C(=O)N[C@@H](CCC(=O)O)C(=O)N[C@@H](Cc1ccccc1)C(=O)N[C@H](C(=O)N[C@@H](CCC(N)=O)C(=O)N[C@@H](Cc1c[nH]c2ccccc12)C(=O)N[C@@H](CC(C)C)C(=O)N[C@@H](CC(C)C)C(=O)N[C@@H](CCCCNC(=O)COCCOCCNC(=O)COCCOCCNC(=O)CC[C@H](NC(=O)CC[C@H](NC(=O)CC[C@H](NC(=O)CCCCCCCCCCCCCCCCC(=O)O)C(=O)O)C(=O)O)C(=O)O)C(=O)N[C@H](C(N)=O)[C@@H](C)O)C(C)C` [Example 42, N^ε28-[2-[2-[2-[[2-[2-[2-[[(4S)-4-carboxy-4-[[(4S)-4-carboxy-4-[[(4S)-4-carboxy-4-(17-carboxyheptadecanoylamino)butanoyl]amino]butanoyl]amino]butanoyl]amino]ethoxy]ethoxy]acetyl]amino]ethoxy]ethoxy]acetyl]-[Aib2,Leu10,Glu15,Arg20,Glu21,Leu27,Lys28]-Glucagon amide] (H-H[Aib]QGTFTSDLSKYLESRRAREFVQWLLK([AEEA-AEEA-γGlu-γGlu-γGlu-C18 diacid])T-NH2; N-terminus assumed) was run?
Answer: 0.3 nM

Question: With `CC(C)C[C@H](NC(=O)[C@H](Cc1ccc(O)cc1)NC(=O)[C@H](CCCCN)NC(=O)[C@H](CO)NC(=O)[C@H](CC(C)C)NC(=O)[C@H](CC(=O)O)NC(=O)[C@H](CO)NC(=O)[C@@H](NC(=O)[C@H](Cc1ccccc1)NC(=O)[C@@H](NC(=O)CNC(=O)[C@H](CCC(N)=O)NC(=O)C(C)(C)NC(=O)[C@@H](N)Cc1c[nH]cn1)[C@@H](C)O)[C@@H](C)O)C(=O)N[C@@H](CC(=O)O)C(=O)N[C@@H](C)C(=O)N[C@@H](CCCNC(=N)N)C(=O)N[C@@H](CCCNC(=N)N)C(=O)N[C@@H](C)C(=O)N[C@@H](CCCNC(=N)N)C(=O)N[C@@H](CCC(=O)O)C(=O)N[C@@H](Cc1ccccc1)C(=O)N[C@H](C(=O)N[C@@H](CCC(N)=O)C(=O)N[C@@H](Cc1c[nH]c2ccccc12)C(=O)N[C@@H](CC(C)C)C(=O)N[C@@H](CC(C)C)C(=O)N[C@@H](CCCCNC(=O)CC[C@H](NC(=O)CC[C@H](NC(=O)COCCOCCNC(=O)COCCOCCNC(=O)CC[C@H](NC(=O)CCCCCCCCCCCCCCCCC(=O)O)C(=O)O)C(=O)O)C(=O)O)C(=O)N[C@H](C(N)=O)[C@@H](C)O)C(C)C` [Example 43, N^ε28-[(4S)-4-carboxy-4-[[(4S)-4-carboxy-4-[[2-[2-[2-[[2-[2-[2-[[(4S)-4-carboxy-4-(17-carboxyheptadecanoylamino)butanoyl]amino]ethoxy]ethoxy]acetyl]amino]ethoxy]ethoxy]acetyl]amino]butanoyl]amino]butanoyl]-[Aib2,Leu10,Ala16,Arg20,Glu21,Leu27,Lys28]-Glucagon amide] (H-H[Aib]QGTFTSDLSKYLDARRAREFVQWLLK([γGlu-γGlu-AEEA-AEEA-γGlu-C18 diacid])T-NH2; N-terminus assumed) as the compound, how does the IC50 read?
Answer: 0.3 nM

Question: With `CC(C)C[C@H](NC(=O)[C@H](Cc1ccc(O)cc1)NC(=O)[C@H](CCCCN)NC(=O)[C@H](CO)NC(=O)[C@H](CC(C)C)NC(=O)[C@H](CC(=O)O)NC(=O)[C@H](CO)NC(=O)[C@@H](NC(=O)[C@H](Cc1ccccc1)NC(=O)[C@@H](NC(=O)CNC(=O)[C@H](CCC(N)=O)NC(=O)C1(NC(=O)[C@@H](N)Cc2c[nH]cn2)CCC1)[C@@H](C)O)[C@@H](C)O)C(=O)N[C@@H](CCC(=O)O)C(=O)N[C@@H](CO)C(=O)N[C@@H](CCCNC(=N)N)C(=O)N[C@@H](CCCNC(=N)N)C(=O)N[C@@H](C)C(=O)N[C@@H](CCCNC(=N)N)C(=O)N[C@@H](CCC(=O)O)C(=O)N[C@@H](Cc1ccccc1)C(=O)N[C@H](C(=O)N[C@@H](CCC(N)=O)C(=O)N[C@@H](Cc1c[nH]c2ccccc12)C(=O)N[C@@H](CC(C)C)C(=O)N[C@@H](CC(C)C)C(=O)N[C@@H](CCCCNC(=O)CC[C@H](NC(=O)CC[C@H](NC(=O)COCCOCCNC(=O)COCCOCCNC(=O)CC[C@H](NC(=O)CCCCCCCCCCCCCCCCC(=O)O)C(=O)O)C(=O)O)C(=O)O)C(=O)N[C@H](C(N)=O)[C@@H](C)O)C(C)C` [Example 44, N^ε28-[(4S)-4-carboxy-4-[[(4S)-4-carboxy-4-[[2-[2-[2-[[2-[2-[2-[[(4S)-4-carboxy-4-(17-carboxyheptadecanoylamino)butanoyl]amino]ethoxy]ethoxy]acetyl]amino]ethoxy]ethoxy]acetyl]amino]butanoyl]amino]butanoyl]-[Acb2,Leu10,Glu15,Arg20,Glu21,Leu27,Lys28]-Glucagon amide] (H-H[Ac4c]QGTFTSDLSKYLESRRAREFVQWLLK([γGlu-γGlu-AEEA-AEEA-γGlu-C18 diacid])T-NH2; N-terminus assumed) as the compound, how does the IC50 read?
Answer: 0.3 nM

Question: Which IC50 does the source give for `CC(C)C[C@H](NC(=O)[C@H](CC(=O)O)NC(=O)[C@H](CC(C)C)NC(=O)[C@H](Cc1ccc(O)cc1)NC(=O)[C@H](CCCCN)NC(=O)[C@H](CO)NC(=O)[C@H](CC(C)C)NC(=O)[C@H](CC(=O)O)NC(=O)[C@H](CO)NC(=O)[C@@H](NC(=O)[C@H](Cc1ccccc1)NC(=O)[C@@H](NC(=O)CNC(=O)[C@H](CCC(N)=O)NC(=O)C1(NC(=O)[C@@H](N)Cc2c[nH]cn2)CCC1)[C@@H](C)O)[C@@H](C)O)C(=O)N[C@@H](CCCNC(=N)N)C(=O)N[C@@H](CCCNC(=N)N)C(=O)N[C@@H](C)C(=O)N[C@@H](CCCNC(=N)N)C(=O)N[C@@H](CC(=O)O)C(=O)N[C@@H](Cc1ccccc1)C(=O)N[C@H](C(=O)N[C@@H](CCC(N)=O)C(=O)N[C@@H](Cc1c[nH]c2ccccc12)C(=O)N[C@@H](CC(C)C)C(=O)N[C@@H](CC(C)C)C(=O)N[C@@H](CCCCNC(=O)CC[C@H](NC(=O)CC[C@H](NC(=O)COCCOCCNC(=O)COCCOCCNC(=O)CC[C@H](NC(=O)CC[C@H](NC(=O)CCCCCCCCCCCCCCCCC(=O)O)C(=O)O)C(=O)O)C(=O)O)C(=O)O)C(=O)N[C@H](C(N)=O)[C@@H](C)O)C(C)C` [Example 45, N^ε28-[(4S)-4-carboxy-4-[[(4S)-4-carboxy-4-[[2-[2-[2-[[2-[2-[2-[[(4S)-4-carboxy-4-[[(4S)-4-carboxy-4-(17-carboxyheptadecanoylamino)butanoyl]amino]butanoyl]amino]ethoxy]ethoxy]acetyl]amino]ethoxy]ethoxy]acetyl]amino]butanoyl]amino]butanoyl]-[Acb2,Leu10,Leu16,Arg20,Leu27,Lys28]-Glucagon amide] (H-H[Ac4c]QGTFTSDLSKYLDLRRARDFVQWLLK([γGlu-γGlu-AEEA-AEEA-γGlu-γGlu-C18 diacid])T-NH2; N-terminus assumed) here?
Answer: 0.4 nM
